Laboratory results reported in paper PMC8482771 (ACS Omega, 2021).
pEC50: −log10 of the molar value.

Assays:
Format in all cases: cell-based
h-P2X5 receptor = h-P2X5 receptor (Homo sapiens, UniProt Q93086); assay: Ca2+ influx assay
h-P2X4R [1] = molecular target: T1, h-P2X4R (Homo sapiens, UniProt Q99571); assay: Ca2+ influx assay
T1 sequence (Q99571 1-388): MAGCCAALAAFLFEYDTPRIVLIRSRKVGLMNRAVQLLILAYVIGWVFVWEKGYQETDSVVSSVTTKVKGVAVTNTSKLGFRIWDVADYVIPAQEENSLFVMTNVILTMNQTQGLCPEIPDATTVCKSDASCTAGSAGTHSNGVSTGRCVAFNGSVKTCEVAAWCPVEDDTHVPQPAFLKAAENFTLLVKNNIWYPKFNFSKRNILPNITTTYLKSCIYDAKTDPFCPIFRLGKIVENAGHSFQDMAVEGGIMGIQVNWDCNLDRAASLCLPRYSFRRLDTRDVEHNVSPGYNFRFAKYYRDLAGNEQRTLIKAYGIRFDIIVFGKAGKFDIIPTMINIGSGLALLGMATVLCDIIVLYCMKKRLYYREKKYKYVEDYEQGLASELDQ

h-P2X2R [2] = molecular target: T2, h-P2X2R (Homo sapiens, UniProt Q9UBL9); assay: Mode of inhibition: ATP dose-response curve without and with inhibitor, h-P2X2R
T2 sequence (Q9UBL9 1-471): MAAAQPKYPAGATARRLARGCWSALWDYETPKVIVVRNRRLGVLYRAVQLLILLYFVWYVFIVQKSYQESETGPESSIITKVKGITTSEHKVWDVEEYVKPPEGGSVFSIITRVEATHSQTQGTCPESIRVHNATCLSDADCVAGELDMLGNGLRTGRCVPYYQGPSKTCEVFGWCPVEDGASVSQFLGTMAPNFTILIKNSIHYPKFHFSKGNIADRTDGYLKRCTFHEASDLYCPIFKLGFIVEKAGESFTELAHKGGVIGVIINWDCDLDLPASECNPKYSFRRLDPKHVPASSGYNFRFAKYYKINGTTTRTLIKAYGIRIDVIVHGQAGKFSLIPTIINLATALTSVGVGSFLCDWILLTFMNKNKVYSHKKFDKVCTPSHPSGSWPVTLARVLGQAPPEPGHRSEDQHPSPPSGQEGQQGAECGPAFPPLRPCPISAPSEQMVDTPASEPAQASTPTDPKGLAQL

h-P2X4R [3] = molecular target: T1, h-P2X4R; assay: Mode of inhibition: ATP dose-response curve without and with inhibitor, h-P2X4R
h-P2X2R [4] = molecular target: T2, h-P2X2R; assay: Ca2+ influx assay

Sequence of h-P2X5 receptor (Q93086 whole entry): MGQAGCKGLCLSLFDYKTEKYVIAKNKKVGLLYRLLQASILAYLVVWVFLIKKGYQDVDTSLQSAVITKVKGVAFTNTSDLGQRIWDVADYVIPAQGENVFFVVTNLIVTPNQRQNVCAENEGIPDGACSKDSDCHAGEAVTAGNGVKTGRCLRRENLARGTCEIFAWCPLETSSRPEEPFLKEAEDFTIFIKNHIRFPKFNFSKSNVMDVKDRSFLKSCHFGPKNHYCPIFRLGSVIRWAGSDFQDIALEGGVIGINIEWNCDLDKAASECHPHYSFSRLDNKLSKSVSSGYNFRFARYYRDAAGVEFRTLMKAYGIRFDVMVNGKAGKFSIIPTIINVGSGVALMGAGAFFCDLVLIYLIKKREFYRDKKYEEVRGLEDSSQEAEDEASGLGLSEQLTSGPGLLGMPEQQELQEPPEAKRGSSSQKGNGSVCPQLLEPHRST

pEC50 (h-P2X5 receptor): 4.98 | pEC50 (h-P2X4R [1]): 5.03 | pEC50 (h-P2X2R [2]): 5.97 | pEC50 (h-P2X4R [3]): 5.59 | pEC50 (h-P2X2R [4]): 5.83
SMILES: Nc1ncnc2c1ncn2[C@@H]1O[C@H](COP(=O)(O)OP(=O)(O)OP(=O)(O)O)[C@@H](O)[C@H]1O [ATP, adenosine triphosphate, reference compound]
